In paper PMC6268642, “Facile Synthesis and Herbicidal Evaluation of 4H-3,1-Benzoxazin-4-ones and 3H-Quinazolin-4-ones with 2-Phenoxymethyl Substituents” (Molecules, 2012):
Like-named read-outs stand apart in the source and are kept apart here.

What was measured:
[1] = system: rape Brassica napus; test: Concentration-dependent root elongation inhibition of rape (IC50); assay type: in vivo; details: for IC50: rape root elongation, Table 3, read-out: IC50 for the root elongation inhibition of rape
Description: Several representative compounds selected from the 2-phenoxy-4H-3,1-benzoxazin-4-one and 2-phenoxy-3H-quinazolin-4-one groups were tested their concentration dependant activities and the half maximal inhibitory concentrations (IC50 values) are shown in Table 3. Obviously, the 2-phenoxy-4H-3,1-benzoxazin-4-ones 3m and 3o have IC50 values near to that of the commercial herbicidal 2,4-D. More importantly, these molecules consist of 2-phenoxymethyl group with halo substituents both at the 2- and 4- positions of the benzene ring, a similar pattern to the commercial hormone herbicides 2,4-D, clomeprop, and 2,4-DB, as well as the ACCase herbicide diclofop-methyl. […] Moreover, if no halo group exists on the benzene ring, the activity will decrease dramatically. On the other hand, the substructure 4H-3,1-benzoxazin-4-one in this work and the carboxylic group in the commercial phenoxyethanoic and phenoxypropionic acid herbicides play also a crucial role in the contribution to the activities of the compounds, meaning they are active substructures.
(§1) The herbicidal activity was examined for the growth inhibition effect of the dicotyledon rape Brassica napus and the monocotyledon barnyard grass Echinochloa crusgalli, using the standard Petri dish test and the pre-emergence treatment procedure. Briefly, the compounds to be tested were dissolved in DMF and emulsified with Tween 80, and the solutions were diluted with water to the concentrations of 10 mg/mL and 1 mg/mL, respectively. Nine mL of the solution was added in a Petri dish of 9 cm diameter and two pieces of filter paper were placed on the dish bottom. Twenty seeds each of rape and barnyard grass were placed on the filter paper. The covered Petri dish was transferred into an artificial climate incubator (MGC-400H, Shantou Keyi Co., Ltd., China), where the conditions were controlled at temperature 23 ± 1 °C, humidity 60 ± 5%, light intensity 10 Klux, and photoperiod 12 h/day. The incubation was continued for 5 days, then the lengths of 10 roots and 10 stems for each type of plant were measured and the mean values were calculated. The percent inhibitory ratios were calculated relative to control plants exposing to distilled water instead of the compound solution.

[2] = system: barnyard grass Echinochloa crusgalli; test: Petri dish culture, growth inhibition of root and stalk of barnyard grass; assay type: in vivo; details: 5 days; for inhibition at 1 µg/mL / inhibition at 10 µg/mL: Echinochloa crus-galli, 120 h
Description: (§2) The synthesized compounds were tested for the herbicidal activity on model plants including a monocotyledon (barnyard grass) and a dicotyledon (rape) by the reported Petri dish culture method. The percent inhibitory ratios against the growth of root and stalk of barnyard grass and rape at different dosage concentrations were calculated, and the compounds with appreciable inhibitory potencies are selected and shown in Table 1 and Table 2. Several features of the inhibitory activities can be derived. First, all the compounds have stronger inhibition against the growth of the dicotyledon rape than against the monocotyledon barnyard grass, showing appreciable selectivity.
as §1, with “Briefly, the compounds to be tested were dissolved in DMF and emulsified with Tween 80, and the solutions were diluted with water to the concentrations of 10 mg/mL and 1 mg/mL, respectively.” left out

[3] = system: rape Brassica napus; test: Petri dish culture, growth inhibition of root and stalk of rape; assay type: in vivo; details: 5 days; for inhibition at 1 µg/mL / inhibition at 10 µg/mL: Brassica napus, 120 h
Description: as §2
as §1, with “Briefly, the compounds to be tested were dissolved in DMF and emulsified with Tween 80, and the solutions were diluted with water to the concentrations of 10 mg/mL and 1 mg/mL, respectively.” left out

[4] = 1 mg/L, root growth, read-out: Relative inhibition, root
[5] = 1 mg/L, stalk growth, read-out: Relative inhibition, stalk
[6] = 10 mg/L, root growth, read-out: Relative inhibition, root
[7] = 10 mg/L, stalk growth, read-out: Relative inhibition, stalk

Row | Compound | IC50 [1] [µM] | Relative inhibition, root ([2]; 1 mg/L, root growth) [%] | Relative inhibition, stalk ([2]; 1 mg/L, stalk growth) [%] | Relative inhibition, root ([2]; 10 mg/L, root growth) [%] | Relative inhibition, stalk ([2]; 10 mg/L, stalk growth) [%] | Relative inhibition, root ([3]; 1 mg/L, root growth) [%] | Relative inhibition, stalk ([3]; 1 mg/L, stalk growth) [%] | Relative inhibition, root ([3]; 10 mg/L, root growth) [%] | Relative inhibition, stalk ([3]; 10 mg/L, stalk growth) [%] | herbicidal activity (control experiment) ([1]; compound without the 4H-3,1-benzoxazin-4-one substructure, plant not stated) | IC50 ([1]; Brassica napus) [µM] | inhibition at 1 µg/mL [2, 4] [%] | inhibition at 1 µg/mL [2, 5] [%] | inhibition at 10 µg/mL [2, 6] [%] | inhibition at 10 µg/mL [2, 7] [%] | melting point [°C] | inhibition at 1 µg/mL [3, 4] [%] | inhibition at 1 µg/mL [3, 5] [%] | inhibition at 10 µg/mL [3, 6] [%] | inhibition at 10 µg/mL [3, 7] [%]
1 | 3-Amino-7-chloro-2-((2,4-dichlorophenoxy)methyl)-3H-quinazolin-4-one [4i] | 27.2 | 24.3 | −7.2 | 68.5 | 38.1 | 93.6 | 92.3 | 98.2 | 95.7 | – | – | – | – | – | – | – | – | – | – | –
2 | CCOc1ccc(Cl)cc1Cl [2,4-dichlorophenyl ethyl ether, reference compound] | – | – | – | – | – | – | – | – | – | loses nearly all of its herbicidal activity | – | – | – | – | – | – | – | – | – | –
3 | O=c1oc(COc2ccc(Cl)cc2)nc2ccccc12 [3g, 2-((4-Chlorophenoxy)methyl)-4H-3,1-benzoxazin-4-one] | – | – | – | – | – | – | – | – | – | – | 30.4 | 53.7 | -25.6 | 79.5 | -1.8 | 147.5 to 149.2 | 98 | 56.8 | 100 | 68
4 | O=c1oc(COc2ccc(Cl)cc2)nc2cccc(Cl)c12 [3h, 5-Chloro-2-((4-chlorophenoxy)methyl)-4H-3,1-benzoxazin-4-one] | – | – | – | – | – | – | – | – | – | – | 138 | 59.8 | 14.7 | 88.7 | 41.9 | 144.3 to 145.7 | 96.3 | 62 | 100 | 91.7
5 | O=c1oc(COc2ccc(Cl)cc2)nc2ccc(Cl)cc12 [3i, 6-Chloro-2-((4-chlorophenoxy)methyl)-4H-3,1-benzoxazin-4-one] | – | – | – | – | – | – | – | – | – | – | 22.3 | 55.3 | -7.3 | 87.8 | 13.2 | 153.2 to 154.6 | 91.4 | 40.2 | 100 | 82.1
6 | COc1cc2nc(COc3ccc(Cl)cc3)oc(=O)c2cc1OC [3l, 2-((4-Chlorophenoxy)methyl)-6,7-dimethoxy-4H-3,1-benzoxazin-4-one] | – | – | – | – | – | – | – | – | – | – | 80.1 | 65.5 | 12.8 | 78.7 | 22 | 118.5 to 119.3 | 96.3 | 74.5 | 100 | 83.4
7 | COc1cc2nc(COc3ccc(Cl)cc3)n(N)c(=O)c2cc1OC [4e, 3-Amino-2-((4-chlorophenoxy)methyl)-6,7-dimethoxy-3H-quinazolin-4-one] | – | – | – | – | – | – | – | – | – | – | – | 13.8 | 2.9 | 23.3 | 11.9 | 202.8 to 204.1 | 21.9 | 1.5 | 30.8 | 6.4
8 | Nn1c(COc2ccc(Cl)cc2Cl)nc2cccc(Cl)c2c1=O [4g, 3-Amino-5-chloro-2-((2,4-dichlorophenoxy)methyl)-3H-quinazolin-4-one] | – | – | – | – | – | – | – | – | – | – | – | 11.8 | -5.9 | 25.8 | -1.8 | 201.5 to 202 | 5.7 | 10 | 17.5 | 44.9
9 | Nn1c(COc2ccc(Cl)cc2Cl)nc2ccc(Cl)cc2c1=O [4h, 3-Amino-6-chloro-2-((2,4-dichlorophenoxy)methyl)-3H-quinazolin-4-one] | – | – | – | – | – | – | – | – | – | – | – | 20 | -42 | 37.5 | -12.7 | 223.6 to 224.9 | 7.5 | 10.7 | 22 | 19.9
10 | Cn1c(COc2ccc(Cl)cc2)nc2ccc(Cl)cc2c1=O [4l, 6-Chloro-2-((4-chlorophenoxy)methyl)-3-methyl-3H-quinazolin-4-one] | – | – | – | – | – | – | – | – | – | – | – | 24.7 | 8.9 | 33.7 | 11.9 | 179.9 to 181.2 | 28.5 | 1.5 | 42.2 | 10.8
11 | Cn1c(COc2ccc(Cl)cc2)nc2cc(Cl)ccc2c1=O [4m, 7-Chloro-2-((4-chlorophenoxy)methyl)-3-methyl-3H-quinazolin-4-one] | – | – | – | – | – | – | – | – | – | – | – | 14.8 | 7.5 | 29.2 | 14.9 | 202.4 to 203.9 | 26.2 | 1.5 | 27.9 | -0.5
12 | Cc1ccc2nc(COc3ccc(Cl)cc3)n(C)c(=O)c2c1 [4n, 2-((4-Chlorophenoxy)methyl)-3,6-dimethyl-3H-quinazolin-4-one] | – | – | – | – | – | – | – | – | – | – | – | 26.7 | 14.9 | 43.5 | 14.9 | 196.4 to 197.6 | 39.4 | 7.8 | 45 | 16.6
13 | COc1cc2nc(COc3ccc(Cl)cc3)n(C)c(=O)c2cc1OC [4o, 2-((4-Chlorophenoxy)methyl)-6,7-dimethoxy-3-methyl-3H-quinazolin-4-one] | – | – | – | – | – | – | – | – | – | – | – | 13.3 | 8.9 | 17.3 | 5.9 | 201.8 to 202.7 | 25.1 | 1.9 | 34.8 | -6.8
14 | Cn1c(COc2ccc(Cl)cc2Cl)nc2ccccc2c1=O [4p, 2-((2,4-Dichlorophenoxy)methyl)-3-methy-3H-quinazolin-4-one] | – | – | – | – | – | – | – | – | – | – | – | 2.5 | -10.9 | 29.4 | -47.3 | 172.1 to 173.4 | 4.5 | 27.1 | 21.2 | 29.2
15 | Cn1c(COc2ccc(Cl)cc2Cl)nc2ccc(Cl)cc2c1=O [4q, 6-Chloro-2-((2,4-dichlorophenoxy)methyl)-3-methyl-3H-quinazolin-4-one] | – | – | – | – | – | – | – | – | – | – | – | 24.3 | 5.4 | 31.9 | -3.6 | 240.1 to 241.8 | 8.1 | 14.4 | 19.3 | 38.9
16 | COc1cc2nc(COc3ccc(Cl)cc3Cl)n(C)c(=O)c2cc1OC [4s, 2-((2,4-Dichlorophenoxy)methyl)-6,7-dimethoxy-3-methyl-3H-quinazolin-4-one] | – | – | – | – | – | – | – | – | – | – | – | 30 | -20.3 | 52.2 | -54.5 | 243.9 to 245.2 | 7.1 | 8.1 | 20.7 | 20.3
